Values after ≈ are worked out from the molar mass of the structure shown. Like-named read-outs stand apart in the source and are kept apart here.

Data on seven compounds can be found in patent US12247004B2, “2-amino-N-(amino-oxo-aryl-lambda6-sulfanylidene)acetamide compounds and their therapeutic use” (Oxford Drug Design Limited, priority 2019, dated 2025).

This assay relates to bacteria (ATCC reference strains). As to the kind of experiment: Antibacterial activity, MIC by broth micro-dilution (CLSI). Background: Broth dilution looks for growth in wells or tubes with falling amounts of substance.
[1] abbreviates: Acinetobacter baumannii, read-out: Antibacterial Activity (MIC), E = A. baumannii B1931.
Where [2] appears, read: Escherichia coli, ATCC25922, read-out: Antibacterial Activity (MIC), A = E. coli ATCC 25922.
[3] abbreviates: Escherichia coli, BAA2469, read-out: Antibacterial Activity (MIC), G = E. coli BAA-2469.
The mark [4] stands for this setting: Haemophilus influenzae, ATCC49247, read-out: Antibacterial Activity (MIC), F = H. influenzae ATCC 49247.
[5] abbreviates: Klebsiella pneumoniae, ATCC700603, read-out: Antibacterial Activity (MIC), C = K. pneumoniae ATCC 700603.
The mark [6] stands for this setting: Pseudomonas aeruginosa, ATCC27853, read-out: Antibacterial Activity (MIC), D = P. aeruginosa ATCC 27853.
[7] abbreviates: Enterobacter cloacae, read-out: Antibacterial Activity (MIC), B = Enterobacter cloacae B1966.

In the case of `CC(C)C[C@H](N)C(=O)N=S(N)(=O)c1csc(Cl)c1` (stereo partly drawn) [ANASIA-099], the MIC is, setting by setting: under setting [1], 32 mg/L (≈ 103 µM); under setting [2], 1 mg/L (≈ 3.23 µM); under setting [3], 2.83 mg/L (≈ 9.13 µM); under setting [4], 2 mg/L (≈ 6.45 µM); under setting [5], 16 mg/L (≈ 51.6 µM); under setting [6], > 64 mg/L.

Take `CC(C)C[C@H](N)C(=O)N=[S@](N)(=O)c1cccs1.Cl` (single isomer, unassigned) [ANASIA-007-1]: the MIC was 8 mg/L under setting [1]; 8 mg/L under setting [7]; 1 mg/L under setting [2]; 5.04 mg/L under setting [3]; 2 mg/L under setting [4]; 8 mg/L under setting [5]. Further, the MIC under setting [6] stood at 16 mg/L.

Turning to `CC(C)(O/N=C(\C(=O)N[C@@H]1C(=O)N2C(C(=O)[O-])=C(C[n+]3ccccc3)CS[C@H]12)c1csc(N)n1)C(=O)O` [Ceftazidime], the “Antibacterial Activity (MIC), E = A. baumannii B1931” value was found to be 2 mg/L; the “Antibacterial Activity (MIC), A = E. coli ATCC 25922” value stood at 0.25 mg/L; the “Antibacterial Activity (MIC), G = E. coli BAA-2469” value is listed as >64.0 mg/L; the “Antibacterial Activity (MIC), B = Enterobacter cloacae B1966” value worked out at 0.5 mg/L. The “Antibacterial Activity (MIC), F = H. influenzae ATCC 49247” value is listed as 16 mg/L; the “Antibacterial Activity (MIC), C = K. pneumoniae ATCC 700603” value is reported as >64 mg/L; the “Antibacterial Activity (MIC), D = P. aeruginosa ATCC 27853” value is reported as >64 mg/L.

As for `CC(C)C[C@H](N)C(=O)N=[S@](N)(=O)c1nc(Cl)cs1.Cl` [ANASIA-045-1], the MIC by setting is: under setting [1], 64 mg/L; under setting [7], > 64 mg/L; under setting [2], 4 mg/L; under setting [3], 45.3 mg/L; under setting [5], > 64 mg/L; under setting [6], > 64 mg/L.

On to `Cc1csc([S@@](N)(=O)=NC[C@@H](N)CC(C)C)n1` [ANASIA-004-1], for which the MIC by setting is: under setting [1], 32 mg/L (≈ 116 µM); under setting [7], > 64 mg/L; under setting [2], 4 mg/L (≈ 14.5 µM); under setting [3], 64 mg/L (≈ 232 µM); under setting [5], > 64 mg/L; under setting [6], 64 mg/L (≈ 232 µM).

For the compound `CC[C@H]1OC(=O)[C@H](C)[C@@H](O[C@H]2C[C@@](C)(OC)[C@@H](O)[C@H](C)O2)[C@H](C)[C@@H](O[C@@H]2O[C@H](C)C[C@H](N(C)C)[C@H]2O)[C@](C)(O)C[C@@H](C)CN(C)[C@H](C)[C@@H](O)[C@]1(C)O` [Azithromycin], the MIC is 16 mg/L (≈ 21.4 µM) under setting [1]; 16 mg/L (≈ 21.4 µM) under setting [7]; 4 mg/L (≈ 5.34 µM) under setting [2]; 2 mg/L (≈ 2.67 µM) under setting [4]; 32 mg/L (≈ 42.7 µM) under setting [5]; 32 mg/L (≈ 42.7 µM) under setting [6].

Turning to `C[C@@H](O)[C@H]1C(=O)N2C(C(=O)O)=C(S[C@@H]3CN[C@H](C(=O)N(C)C)C3)[C@H](C)[C@H]12` [Meropenem], the “Antibacterial Activity (MIC), E = A. baumannii B1931” value was 8 mg/L; the “Antibacterial Activity (MIC), A = E. coli ATCC 25922” value is given as 0.5 mg/L; the “Antibacterial Activity (MIC), G = E. coli BAA-2469” value is listed as >62.0 mg/L; the “Antibacterial Activity (MIC), B = Enterobacter cloacae B1966” value amounted to 0.5 mg/L. Moreover, the “Antibacterial Activity (MIC), F = H. influenzae ATCC 49247” value amounted to 4 mg/L; the “Antibacterial Activity (MIC), C = K. pneumoniae ATCC 700603” value was found to be 0.5 mg/L; the “Antibacterial Activity (MIC), D = P. aeruginosa ATCC 27853” value was >64 mg/L.
